# Test results reported in US20050227982A1, “Antileishmanial dinitroaniline sulfanomides with activity against parasite tubulin” (priority 2002, published 2005).
# Where “and” joins values, the source holds several entries; their conditions need not be identical. Identical values can stand only once. Like-named read-outs stand apart in the source and are kept apart here.
# Columns and labels:
# [1] = test system: leishmanial tubulin; type: biochemical; settings: mean ± SD of at least one duplicate measurement, SD of controls 27.6%
# Description: (§1) 2000, 110, 223-236, incorporated herein by reference.^14
# Briefly, the tubulin assembly assays are performed as follows. […] The change in turbidity was measured at 351 nm using the SpectraMax Plus microplate reader immediately after GTP addition at 30° C. (for leishmanial tubulin) or 37° C. (for brain tubulin).
# [2] = test system: L. donovani promastigotes; assay: Growth inhibition of L. donovani promastigotes; type: cell-based, Leishmania donovani; settings: read-out: IC50 vs. L. donovani promastigotes
# [3] = test system: L. donovani axenic amastigotes; assay: Growth inhibition of L. donovani axenic amastigotes (three-day tetrazolium dye assay); type: cell-based, Leishmania donovani
# Description: as §1
# (§2) Determination of the drug susceptibility of parasites and mammalian cells. The susceptibility of Leishmania donovani amastigote-like parasites (WHO designation: MHOM/SD/62/1S-CL2D) to growth inhibition by compounds of interest was measured in a three-day assay using the tetrazolium dye-based CellTiter reagent (Promega) (Werbovetz, K., Brendle, J., and Sackett, D. (1999) Mol. Biochem. Parasitol. 98, 53-65., and Havens, C., Bryant, N., Asher, L., Lamoreaux, L., Perfetto, S., Brendle, J., and Werbovetz, K. (2000) Mol. Biochem. Parasitol. 110, 223-236). The amastigote medium used in this assay is based on the medium mentioned by Joshi et al. (Joshi, M., Dwyer, D. M., and Nakhasi, H. L. (1993) Mol. Biochem. Parasitol. 58, 345-354). Prior to addition of fetal bovine serum to a final concentration of 20%, this amastigote medium contains 15 mM KCl, 115 mM KH2PO4, 10 mM K2HPO4, 0.5 mM MgSO4, 24 mM NaHCO3, a 1-concentration of RPMI-1640 vitamins and amino acids, 2.0 mM L-glutamine, 22 mM D-glucose, 100 units/mL penicillin, 100 ∝g/ml streptomycin, 0.1 mM adenosine, 1 ∝g/mL folate, and 25 mM MES (pH 5.5). Compounds were tested for their activity against bloodstream-form Trypanosoma brucei brucei (MITat 1.2, variant 221) axenically-cultured in HMI-9 medium , H., and Hirumi, K. (1989) J. Parasitol. 75, 985-989.) following the procedure of Ellis et al. (Ellis, J., Fish, W., Sileghem, M., and McOdimba, F. (1993) Vet. Parasitol. 50, 143-149.) with some modifications. Briefly, 100 μL of late log phase parasites were incubated in 96-well plates (Costar) at an initial concentration of 10^5 cells/ml with or without test compounds at 37° C. in a humidified 5% CO2 atmosphere for 72 hours. Twenty-five μL of a 5 mg/mL solution of MTT (prepared in phosphate buffered saline and filter sterilized) was then added to each well and plates were re-incubated at 37° C. as before for 2 h. One hundred ∝L of 20% SDS lysis buffer (prepared in 50% aqueous DMF) was added to each well and plates were incubated as before for an additional 3-4 h. Optical densities were then measured at 570 nm using SpectraMax Plus microplate reader. […] Assessment of the in vitro sensitivity of T. b. brucei Lab 110 EATRO and P. falciparum strains to compounds was performed by methods described in Donkor et al. (Donkor, I., Assefa, H., Rattendi, D., Lane, S., Vargas, M., Goldberg, B., and Bacchi, C. (2001) Eur. J. Med. Chem. 36, 531-538.) and Guan et al. (Guan, J., Kyle, D., Gerena, L., Zhang, Q., Milhous, W., and Lin, A. (2002) J. Med. Chem. 45, 2741-2748).
# [4] = test system: J774 murine macrophages; assay: Toxicity to J774 macrophages (three-day CellTiter assay); type: cell-based; settings: read-out: IC50, J774 macrophages
# Description: (§3) The toxicity of compounds to J774 murine macrophages and PC3 […] cells was measured in a three-day assay using the CellTiter reagent. […] Macrophages were allowed to adhere for 24 hours, then the medium was removed and replaced with serial dilutions of the test compounds in the DMEM medium mentioned above without phenol red. After 72 hr incubation with the test compounds at 37° C. in a humidified 5% CO2 incubator, cell viability was determined using the CellTiter reagent by adding 20 μL of assay solution to each well. After a 6-7 h incubation at 37° C. to allow for color development, the absorbance of each well at 490 nm was measured in a SpectraMax Pro microplate reader (Molecular Devices). The toxicity of compounds to PC3 cells was assessed in the same manner as for the macrophages, except that the medium used was RPMI 1640 supplemented with 10% heat inactivated fetal calf serum, 2.0 mM L-glutamine, 50 units/mL penicillin, and 50 ∝g/mL streptomycin. IC50 values for the J774 and PC3 assays were determined with the software program SoftMax Pro as described earlier.
# [5] = test system: P. falciparum D6 strain; assay: In vitro sensitivity of P. falciparum D6 strain (tritiated hypoxanthine uptake); type: cell-based, Plasmodium falciparum
# Description: as §2
# [6] = test system: P. falciparum W2 strain; assay: microbe, parasite or virus in culture; type: cell-based, Plasmodium falciparum
# Description: as §2
# [7] = test system: PC3 cells; assay: Toxicity to PC3 cells (three-day CellTiter assay); type: cell-based; settings: read-out: IC50, PC3 prostate
# Description: as §3
# [8] = test system: Trypanosoma brucei brucei (MITat 1.2, variant 221); assay: microbe, parasite or virus in culture; type: cell-based; settings: read-out: IC50, T. b. brucei variant 221
# Description: as §2
# [9] = test system: L. donovani promastigotes; assay: Flow cytometry of DNA content in L. donovani promastigotes; type: cell-based, Leishmania donovani; settings: 10 μM compound, 48 hour treatment of promastigotes
# Description: Flow cytometry and fluorescence cell sorting. Parasites or J774 macrophages were incubated in T25 flasks (3-5 mL final volume) in the appropriate media described earlier for 24-48 h. Cultures contained 1% DMSO (v/v) in the presence or absence of test compounds. Cells were counted using a hemacytometer, then were centrifuged (1000×·g for parasites, 200×·g for macrophages) at 4° C. for 10 min (parasites) or 5 min (macrophages). Cells were resuspended in 150 μL of PBS (0.01 M phosphate, 0.137 M NaCl, and 2.7 mM KCl), then 350 μL of ice-cold methanol was added and the samples were fixed at −20° C. for 2-3 h. Cells were centrifuged as before and resuspended in PBS containing 0.1% TX-100, 5 μg/mL RNase A, and 10 μg/mL propidium iodide for 20-30 min. Centrifugation was repeated, then cells were resuspended in PBS to a final concentration of 5×10^5-10^6/mL and stored at 4° C. until analysis. Fluorescence cell sorting was conducted on a Beckman Coulter Elite flow cytometer.
# [10] = test system: T. b. brucei Lab 110 EATRO; assay: In vitro sensitivity of T. b. brucei Lab 110 EATRO (Coulter counter, two-day); type: cell-based, Trypanosoma brucei brucei; settings: read-out: IC50, T. b. brucei Lab 110 EATRO
# Description: as §2
# [11] = mean ± standard deviation of at least two independent measurements
# [12] = Leishmania donovani, 72 h, Table 4, three-day tetrazolium dye assay, mean ± SD, read-out: IC50, L. donovani axenic amastigotes
# [13] = Leishmania donovani, 72 h, unit inferred, three-day tetrazolium dye assay, read-out: IC50, L. donovani axenic amastigotes
# [14] = Leishmania donovani, Table 1, mean ± standard deviation of at least two independent measurements, read-out: IC50 vs. L. donovani amastigotes
# [15] = Mus musculus, J774, Table 4, mean ± SD of at least two independent experiments
# [16] = Plasmodium falciparum, D6, read-out: IC50, P. falciparum D6 strain
# [17] = Plasmodium falciparum, W2, read-out: IC50, P. falciparum W2 strain
# [18] = Trypanosoma brucei, 72 h, Table 4, three-day tetrazolium dye assay
# [19] = Trypanosoma brucei, unit inferred
# [20] = read-out: IC50, L. donovani axenic amastigotes
# [21] = unit inferred, three-day tetrazolium dye assay, read-out: IC50, L. donovani axenic amastigotes
molecule,measurement,setting,value
CCCNc1c([N+](=O)[O-])cc(S(N)(=O)=O)cc1[N+](=O)[O-] [Compound 13],% Inhibition of Leishmanial Tubulin Assembly at 20 μM Compound,[1],43 ± 19%
same,IC50,[2]; [11],67 ± 18.4 µM
"CCCCN(CCCC)c1c([N+](=O)[O-])cc(S(N)(=O)=O)cc1[N+](=O)[O-] [Compound 15, 4(dibutylamino)-3,5-dinitrobenzenesulfonamide]",IC50,[3]; [12],20.1 ± 0.2 µM
same,IC50,[3]; [13],20.1 ± 0.2 µM
same,IC50,[3]; [14],20.1 ± 0.2 µM
same,IC50,[4]; [15],8.43 ± 0.69 µM
same,IC50,"[4]; Mus musculus, J774, table after b111, unit inferred",8.43 ± 0.69 µM
same,IC50,[5]; [16],5.1 µM
same,% Inhibition of Leishmanial Tubulin Assembly at 20 μM Compound,[1],89 ± 3%
same,IC50,[6]; [17],4.3 µM
same,IC50,"[7]; Homo sapiens, PC-3, 72 h",17.2 ± 2.8 µM
same,IC50,[2]; Leishmania donovani,17.8 ± 2.6 µM
same,IC50,[8]; [18],2.57 ± 0.7 µM
same,IC50,[8]; [19],2.57 ± 0.7 µM
same,effect on cell cycle / DNA content by flow cytometry,[9],accumulate in the G2M phase of the cell cycle
same,IC50,"[10]; Trypanosoma brucei, 48 h",1.8 µM
CCCCCN(CCCCC)c1c([N+](=O)[O-])cc(S(N)(=O)=O)cc1[N+](=O)[O-] [Compound 16],IC50,[3]; [14],9 ± 0.7 µM
same,% Inhibition of Leishmanial Tubulin Assembly at 20 μM Compound,[1],95 ± 5%
same,IC50,[2]; Leishmania donovani,8.02 ± 0.42 µM
CCCCCCN(CCCCCC)c1c([N+](=O)[O-])cc(S(N)(=O)=O)cc1[N+](=O)[O-] [Compound 17],IC50,[3]; [12],11.7 ± 0.7 µM
same,IC50,[3]; [14],11.7 ± 0.7 µM
same,IC50,[4]; [15],1.91 ± 0.36 µM
same,IC50,[5]; [16],10 µM
same,% Inhibition of Leishmanial Tubulin Assembly at 20 μM Compound,[1],48 ± 19%
same,IC50,[6]; [17],12 µM
same,IC50,"[7]; Homo sapiens, PC-3, 72 h",11.2 ± 1.3 µM
same,IC50,[2]; Leishmania donovani,12.2 µM
same,IC50,[8]; [18],9.48 ± 1.73 µM
same,IC50,"[10]; Trypanosoma brucei, 48 h",5.6 µM
NS(=O)(=O)c1cc([N+](=O)[O-])c(N2CCCC2)c([N+](=O)[O-])c1 [Compound 19],% Inhibition of Leishmanial Tubulin Assembly at 20 μM Compound,[1],57 ± 18%
same,IC50,[2]; [11],97.1 ± 53 µM
"CCCNS(=O)(=O)c1cc([N+](=O)[O-])c(N(CCC)CCC)c([N+](=O)[O-])c1 [Compound 21, N1-Propyl-3,5-dinitro-N4,N4-di-n-propylsulfonilamide]",IC50,[3]; [20],54.3 µM and 56.9 µM
same,IC50,[3]; read-out: IC50 vs. L. donovani amastigotes,56.9 ± 3.4 µM
same,IC50,[4],21.8 ± 2.1 µM
same,IC50,"[5]; tritiated hypoxanthine uptake, read-out: IC50, P. falciparum D6 strain",13 µM
same,% Inhibition of Leishmanial Tubulin Assembly at 20 μM Compound,[1],97 ± 1%
same,IC50,"[6]; tritiated hypoxanthine uptake, read-out: IC50, P. falciparum W2 strain",> 25 µM
same,IC50,"[7]; three-day tetrazolium dye assay, mean ± SD",40.5 ± 8.6 µM
same,IC50,[2]; [11],56 ± 2.3 µM
same,IC50,[8],9.2 µM and 8.06 µM
same,IC50,[10]; Coulter counter after two-day incubation,3 µM
CCCN(CCC)c1c([N+](=O)[O-])cc(C#N)cc1[N+](=O)[O-] [Compound 27],% Inhibition of Leishmanial Tubulin Assembly at 20 μM Compound,[1],25 ± 17%
same,IC50,[2]; [11],> 100 µM
CCCN(CCC)c1c([N+](=O)[O-])cc(C(N)=NO)cc1[N+](=O)[O-] [Compound 29],% Inhibition of Leishmanial Tubulin Assembly at 20 μM Compound,[1],35 ± 7%
same,IC50,[2]; [11],> 100 µM
"CCCN(CCC)c1c([N+](=O)[O-])cc(S(=O)(=O)Nc2cc(Cl)cc(Cl)c2)cc1[N+](=O)[O-] [Compound 45, N1-(3,5-Dichloro)phenyl-3,5-dinitro-N4,N4-di-n-propylsulfonilamide]",IC50,[3]; [21],3.71 ± 0.91 µM
same,IC50,[4]; unit inferred,5.12 ± 0.35 µM
same,IC50,[8]; unit inferred,3.4 µM
"CCCN(CCC)c1c([N+](=O)[O-])cc(S(=O)(=O)Nc2ccccn2)cc1[N+](=O)[O-] [Compound 46, N1-(2-Pyridinyl)-3,5-dinitro-N4,N4-di-n-propylsulfonilamide]",IC50,[3]; [21],59.7 ± 6.2 µM
same,IC50,[4]; unit inferred,44.9 ± 16.3 µM
same,IC50,[8]; unit inferred,10.9 µM
"N=C(N)c1ccc(OCCCCCOc2ccc(C(=N)N)cc2)cc1 [Pentamidine, reference compound]",IC50,[3]; [13],2 ± 0.06 µM
same,IC50,[3]; [14],2 ± 0.06 µM
same,IC50,"[2]; Leishmania donovani, mean ± standard deviation of at least two independent measurements",1.61 ± 0.22 µM
same,IC50,[8]; [19],0.0194 ± 0.0069 µM
"N1-(3-Methyl)phenyl-3,5-dinitro-N4,N4-di-n-propylsulfonilamide [Compound 42]",IC50,[3]; [20],22.7 ± 0.8 µM
same,IC50,[4],15.8 ± 2.1 µM
same,IC50,[8],0.92 µM
